Data as given in patent publication US20140158116A1, “INHIBITING TRPA1 FOR THE TREATMENT OF ASTHMA” (Cubist Pharmaceuticals, Inc., priority 2012, published 2014).
Read-outs that look alike come from different tables or passages of the source.

Tests used:
hTRPV6 = molecular target: T1, hTRPV6 (Homo sapiens, UniProt Q9H1D0); test: Patch clamp selectivity, hTRPV6; type: cell-based
T1 sequence (Q9H1D0 1-765): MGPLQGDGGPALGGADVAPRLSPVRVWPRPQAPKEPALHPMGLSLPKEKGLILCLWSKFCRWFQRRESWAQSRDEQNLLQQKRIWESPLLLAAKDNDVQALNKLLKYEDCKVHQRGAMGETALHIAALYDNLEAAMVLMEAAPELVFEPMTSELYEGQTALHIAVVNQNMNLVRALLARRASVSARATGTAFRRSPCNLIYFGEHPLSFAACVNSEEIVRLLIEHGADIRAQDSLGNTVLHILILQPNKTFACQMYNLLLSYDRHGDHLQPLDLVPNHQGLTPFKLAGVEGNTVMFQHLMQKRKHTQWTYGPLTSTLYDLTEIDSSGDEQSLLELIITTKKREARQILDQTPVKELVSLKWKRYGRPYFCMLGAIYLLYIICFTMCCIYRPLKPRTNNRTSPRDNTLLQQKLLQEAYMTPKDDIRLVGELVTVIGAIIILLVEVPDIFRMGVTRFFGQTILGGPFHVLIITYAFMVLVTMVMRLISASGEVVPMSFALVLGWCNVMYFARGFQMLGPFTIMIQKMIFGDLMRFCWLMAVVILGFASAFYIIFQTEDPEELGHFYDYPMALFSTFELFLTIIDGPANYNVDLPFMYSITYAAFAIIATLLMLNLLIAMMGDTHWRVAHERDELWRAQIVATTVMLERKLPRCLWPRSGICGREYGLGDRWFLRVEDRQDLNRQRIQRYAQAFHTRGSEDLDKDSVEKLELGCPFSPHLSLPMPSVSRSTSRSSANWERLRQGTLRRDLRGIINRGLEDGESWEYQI
Method: (§1) Data for TRPA1 inhibition and the selectivity of TRPA1 inhibition was obtained by this method for the compound of Formula (Ia) and included in Table 1 and Table 2. All currents were recorded in whole-cell configuration using EPC-9 and EPC-10 amplifiers and Patchmaster software (HEKA). […] The standard pipette solution consisted of 140 mM CsAsp, 10 mM EGTA, 10 mM HEPES, 2.27 mM MgCl2, 1.91 mM CaCl2, 4 mM MgATP, and 0.1-0.3 mM Na2GTP, with pH adjusted to 7.2 with CsOH. In addition, a solution containing 145 mM CsCl, 10 mM HEPES, 10 mM EGTA and 1 mM MgCl2 (pH 7.2 adjusted with CsOH) can be used. The standard bath solution contained 150 mM NaCl, 10 mM HEPES, 10 mM glucose, 4.5 mM KCl, 1 mM EGTA, 3 mM MgCl2, with pH adjusted to 7.4 with NaOH. In some instances, 2 mM CaCl2 was added in place of EGTA and the concentration of MgCl2 was reduced to 1 mM.
(§2) Data were collected either by continuous recordings at −60 mV or by applying voltage ramps from a holding potential of 0 mV every 4 s. […] Inward and outward currents were analyzed from the ramps at −80 and 80 mV, respectively. […]
(§3) Solutions were switched using a gravity-fed continuous focal perfusion system. […] Temperatures were confirmed using a thermistor (Warner Instruments, TA-29), with temperatures at the recorded cell estimated to be within +/−2° C. of those reported. […]

hTRPV1 = hTRPV1 (Homo sapiens, UniProt Q8NER1); test: Patch clamp selectivity, hTRPV1; type: cell-based
Method: as §1, §2, §3

hTRPA1 = hTRPA1 (Homo sapiens, UniProt O75762); test: Whole-cell patch clamp block of inward current through hTRPA1; type: cell-based
Sequence of hTRPA1 (O75762 whole entry): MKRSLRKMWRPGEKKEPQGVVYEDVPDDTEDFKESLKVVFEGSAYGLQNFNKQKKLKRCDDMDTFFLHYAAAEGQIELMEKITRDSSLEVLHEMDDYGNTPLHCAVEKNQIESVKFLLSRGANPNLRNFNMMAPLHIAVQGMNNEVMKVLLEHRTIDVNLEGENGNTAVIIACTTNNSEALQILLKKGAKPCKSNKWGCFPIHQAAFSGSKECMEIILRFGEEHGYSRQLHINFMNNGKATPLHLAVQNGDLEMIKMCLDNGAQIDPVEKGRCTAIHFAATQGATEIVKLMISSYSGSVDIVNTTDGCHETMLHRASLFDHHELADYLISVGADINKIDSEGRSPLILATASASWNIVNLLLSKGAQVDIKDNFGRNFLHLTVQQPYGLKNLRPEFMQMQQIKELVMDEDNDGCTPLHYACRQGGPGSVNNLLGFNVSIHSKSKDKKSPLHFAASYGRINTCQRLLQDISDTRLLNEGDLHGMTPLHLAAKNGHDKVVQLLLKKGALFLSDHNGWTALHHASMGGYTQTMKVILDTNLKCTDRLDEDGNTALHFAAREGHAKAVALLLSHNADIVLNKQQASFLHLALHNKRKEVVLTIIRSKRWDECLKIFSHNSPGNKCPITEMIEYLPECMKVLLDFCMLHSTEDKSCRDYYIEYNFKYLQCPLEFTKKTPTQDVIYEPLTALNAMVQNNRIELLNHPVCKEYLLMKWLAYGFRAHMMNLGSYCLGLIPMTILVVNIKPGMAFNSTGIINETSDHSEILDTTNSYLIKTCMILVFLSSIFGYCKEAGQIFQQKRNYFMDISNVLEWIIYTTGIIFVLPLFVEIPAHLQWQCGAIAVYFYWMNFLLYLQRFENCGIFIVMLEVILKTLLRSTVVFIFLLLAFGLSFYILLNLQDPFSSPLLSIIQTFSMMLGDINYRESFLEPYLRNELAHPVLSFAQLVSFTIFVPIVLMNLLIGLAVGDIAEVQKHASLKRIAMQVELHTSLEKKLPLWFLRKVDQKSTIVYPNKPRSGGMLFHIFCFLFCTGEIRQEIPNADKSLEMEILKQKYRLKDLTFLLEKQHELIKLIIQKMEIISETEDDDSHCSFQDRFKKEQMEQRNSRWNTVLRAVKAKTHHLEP
Method: as §1
Data were collected either by continuous recordings at −60 mV or by applying voltage ramps from a holding potential of 0 mV every 4 s. Continuous recordings were collected at 400 Hz and digitally filtered off-line at 10 Hz for presentation. Voltage ramps were applied from −100 mV to 100 mV over the course of 400 ms, and data were collected at 10 kHz and filtered at 2.9 kHz. Inward and outward currents were analyzed from the ramps at −80 and 80 mV, respectively. Liquid junction potential correction was not used.
Solutions were switched using a gravity-fed continuous focal perfusion system. To achieve rapid temperature changes, two temperature control and perfusion systems were employed simultaneously. For temperatures ≧22° C., a Warner Instruments bipolar temperature controller (TC-344B) and inline heater (SHM-8) were used. […] Temperatures were confirmed using a thermistor (Warner Instruments, TA-29), with temperatures at the recorded cell estimated to be within +/−2° C. of those reported.
IC50 of compounds was estimated by testing each compound at 5 micromolar and 500 nanomolar. […] IC50 for compounds between 500 nanomolar and 5 micromolar was similarly estimated. Compounds blocking 50% or more at 500 nanomolar are retested at multiple concentrations, and the % block at each is fitted by standard equations to determine IC50 accurately using a 5-6 point concentration/response experiment.

hTRPM8 = hTRPM8 (Homo sapiens, UniProt Q7Z2W7); test: Patch clamp selectivity, hTRPM8; type: cell-based
Sequence of hTRPM8 (Q7Z2W7 whole entry): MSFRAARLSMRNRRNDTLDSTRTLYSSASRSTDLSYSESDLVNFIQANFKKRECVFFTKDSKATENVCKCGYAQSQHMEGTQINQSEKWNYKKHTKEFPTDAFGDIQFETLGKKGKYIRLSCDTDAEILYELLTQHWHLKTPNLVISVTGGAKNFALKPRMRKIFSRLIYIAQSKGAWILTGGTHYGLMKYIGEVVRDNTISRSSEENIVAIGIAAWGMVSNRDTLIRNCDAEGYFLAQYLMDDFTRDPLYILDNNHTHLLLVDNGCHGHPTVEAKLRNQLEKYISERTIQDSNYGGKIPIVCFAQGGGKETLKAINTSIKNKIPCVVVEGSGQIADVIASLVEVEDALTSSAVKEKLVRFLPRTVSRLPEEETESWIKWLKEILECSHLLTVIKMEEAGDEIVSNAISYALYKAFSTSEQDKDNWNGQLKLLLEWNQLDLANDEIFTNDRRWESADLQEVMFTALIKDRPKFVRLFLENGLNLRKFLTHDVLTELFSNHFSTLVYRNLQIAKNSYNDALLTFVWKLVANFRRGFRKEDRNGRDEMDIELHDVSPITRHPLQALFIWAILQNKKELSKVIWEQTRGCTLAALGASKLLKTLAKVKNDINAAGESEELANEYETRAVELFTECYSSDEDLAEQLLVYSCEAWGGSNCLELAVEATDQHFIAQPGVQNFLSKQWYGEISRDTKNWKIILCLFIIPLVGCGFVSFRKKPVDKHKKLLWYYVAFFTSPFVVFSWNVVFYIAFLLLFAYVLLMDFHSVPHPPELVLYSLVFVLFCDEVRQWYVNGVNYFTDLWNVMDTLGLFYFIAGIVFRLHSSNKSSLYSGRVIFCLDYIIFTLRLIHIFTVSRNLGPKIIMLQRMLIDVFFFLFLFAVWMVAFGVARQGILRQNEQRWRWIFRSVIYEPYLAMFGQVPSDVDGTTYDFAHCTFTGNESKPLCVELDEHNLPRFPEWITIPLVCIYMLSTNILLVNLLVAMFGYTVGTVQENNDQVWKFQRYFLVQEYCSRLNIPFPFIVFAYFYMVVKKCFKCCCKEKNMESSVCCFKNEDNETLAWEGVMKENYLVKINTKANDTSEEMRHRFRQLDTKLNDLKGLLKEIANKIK
Method: as §1, §2, §3

hNaV1.2 = hNaV1.2 (Homo sapiens, UniProt Q99250); test: Patch clamp selectivity, hNaV1.2; type: cell-based
Sequence of hNaV1.2 (Q99250 whole entry): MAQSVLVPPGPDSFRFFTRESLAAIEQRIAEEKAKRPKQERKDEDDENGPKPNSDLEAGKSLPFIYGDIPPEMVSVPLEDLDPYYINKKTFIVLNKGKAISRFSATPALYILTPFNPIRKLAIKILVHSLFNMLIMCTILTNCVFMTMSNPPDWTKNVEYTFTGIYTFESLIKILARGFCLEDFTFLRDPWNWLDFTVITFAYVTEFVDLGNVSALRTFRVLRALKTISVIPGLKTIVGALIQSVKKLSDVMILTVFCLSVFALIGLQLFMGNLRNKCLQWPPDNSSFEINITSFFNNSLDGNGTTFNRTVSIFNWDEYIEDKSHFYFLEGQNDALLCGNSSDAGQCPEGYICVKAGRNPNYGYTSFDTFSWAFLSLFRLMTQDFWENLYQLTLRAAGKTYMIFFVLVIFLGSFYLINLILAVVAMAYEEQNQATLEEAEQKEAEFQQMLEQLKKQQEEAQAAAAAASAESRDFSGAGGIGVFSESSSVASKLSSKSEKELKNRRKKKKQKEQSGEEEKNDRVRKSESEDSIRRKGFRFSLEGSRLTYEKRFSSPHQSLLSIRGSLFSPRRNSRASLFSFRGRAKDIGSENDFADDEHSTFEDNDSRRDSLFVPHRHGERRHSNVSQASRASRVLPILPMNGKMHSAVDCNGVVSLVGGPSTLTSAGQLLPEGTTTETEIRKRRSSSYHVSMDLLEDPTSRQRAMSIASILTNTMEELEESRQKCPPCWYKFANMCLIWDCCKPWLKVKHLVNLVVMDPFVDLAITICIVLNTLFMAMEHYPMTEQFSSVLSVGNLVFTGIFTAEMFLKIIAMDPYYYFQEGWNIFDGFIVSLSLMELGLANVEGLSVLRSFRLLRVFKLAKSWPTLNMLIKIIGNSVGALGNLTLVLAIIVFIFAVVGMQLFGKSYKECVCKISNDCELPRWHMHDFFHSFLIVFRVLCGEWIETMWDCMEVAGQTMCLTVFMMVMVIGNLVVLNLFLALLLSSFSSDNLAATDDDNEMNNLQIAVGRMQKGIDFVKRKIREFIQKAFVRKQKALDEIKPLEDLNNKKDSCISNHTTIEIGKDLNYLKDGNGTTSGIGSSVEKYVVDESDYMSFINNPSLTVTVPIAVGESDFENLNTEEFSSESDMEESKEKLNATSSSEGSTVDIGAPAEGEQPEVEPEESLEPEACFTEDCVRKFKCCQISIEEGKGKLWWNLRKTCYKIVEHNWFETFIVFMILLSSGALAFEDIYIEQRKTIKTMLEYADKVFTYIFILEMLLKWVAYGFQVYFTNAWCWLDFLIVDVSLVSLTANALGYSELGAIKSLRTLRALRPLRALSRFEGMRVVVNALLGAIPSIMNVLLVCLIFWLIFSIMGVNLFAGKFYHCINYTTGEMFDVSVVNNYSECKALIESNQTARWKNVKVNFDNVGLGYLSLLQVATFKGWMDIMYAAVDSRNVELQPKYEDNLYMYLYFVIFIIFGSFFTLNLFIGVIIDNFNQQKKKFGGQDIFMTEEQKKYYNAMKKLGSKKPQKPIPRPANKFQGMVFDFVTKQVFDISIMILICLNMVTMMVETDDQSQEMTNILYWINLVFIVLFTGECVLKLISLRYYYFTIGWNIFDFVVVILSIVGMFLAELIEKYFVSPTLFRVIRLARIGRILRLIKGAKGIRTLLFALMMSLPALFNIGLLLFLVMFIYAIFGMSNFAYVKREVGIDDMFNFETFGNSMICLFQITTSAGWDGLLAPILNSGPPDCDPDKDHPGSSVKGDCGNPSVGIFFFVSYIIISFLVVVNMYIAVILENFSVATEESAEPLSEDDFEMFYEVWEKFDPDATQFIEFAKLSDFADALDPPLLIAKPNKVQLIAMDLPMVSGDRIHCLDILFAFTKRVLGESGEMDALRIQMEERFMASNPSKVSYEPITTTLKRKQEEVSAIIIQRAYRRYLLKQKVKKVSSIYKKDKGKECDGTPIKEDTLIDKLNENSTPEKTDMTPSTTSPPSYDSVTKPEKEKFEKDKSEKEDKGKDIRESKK
Method: as §1, §2, §3

hTRPV4 = hTRPV4 (Homo sapiens, UniProt Q9HBA0); test: Patch clamp selectivity, hTRPV4 block; type: cell-based
Sequence of hTRPV4 (Q9HBA0 whole entry): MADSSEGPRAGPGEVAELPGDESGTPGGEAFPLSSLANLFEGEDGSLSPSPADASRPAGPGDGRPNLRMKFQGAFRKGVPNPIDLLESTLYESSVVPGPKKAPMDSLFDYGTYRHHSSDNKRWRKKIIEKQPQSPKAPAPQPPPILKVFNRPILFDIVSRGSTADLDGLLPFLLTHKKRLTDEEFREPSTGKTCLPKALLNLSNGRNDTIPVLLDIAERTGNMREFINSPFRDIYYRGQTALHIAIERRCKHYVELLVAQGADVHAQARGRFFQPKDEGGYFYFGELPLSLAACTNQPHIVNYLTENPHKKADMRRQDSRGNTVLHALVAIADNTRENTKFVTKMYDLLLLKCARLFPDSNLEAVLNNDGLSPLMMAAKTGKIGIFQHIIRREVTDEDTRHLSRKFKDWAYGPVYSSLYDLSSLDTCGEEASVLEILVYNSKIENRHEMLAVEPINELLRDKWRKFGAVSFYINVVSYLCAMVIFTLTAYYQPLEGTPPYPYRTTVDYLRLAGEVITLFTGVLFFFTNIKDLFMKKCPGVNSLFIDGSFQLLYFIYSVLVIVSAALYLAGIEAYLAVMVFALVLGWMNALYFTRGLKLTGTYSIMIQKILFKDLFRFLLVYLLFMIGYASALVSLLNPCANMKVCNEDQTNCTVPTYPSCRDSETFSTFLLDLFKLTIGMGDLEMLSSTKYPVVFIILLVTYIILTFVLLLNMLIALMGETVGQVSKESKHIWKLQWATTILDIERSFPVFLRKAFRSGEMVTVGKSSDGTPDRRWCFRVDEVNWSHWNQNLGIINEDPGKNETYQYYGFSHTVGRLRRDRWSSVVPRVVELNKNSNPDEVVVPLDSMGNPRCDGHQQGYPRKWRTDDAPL
Method: as §1, §2, §3

[1] = test system: formalin-induced pain behavior; test: Formalin-induced pain behavior in vivo rodent model; parameters: species or system rat; conditions: vehicle 88.6
From the text: The data shown in Tables 3a, 3b, and 3c and FIG. 2 were obtained by administering a pharmaceutical composition comprising the compound of Formula (Ia) to rodents in the formalin-induced pain duration at various doses according to Example 5. Specifically, the data in Tables 3a, 3b, and 3c and FIG. 2 were obtained by intraperitoneal (i.p.) administration of compositions containing different concentrations of the compound of Formula (Ia), a comparator composition containing recited amounts of the comparator compound (e.g., 150 mg/kg of the comparator compound of Formula (II) in Table 3a) and a control composition containing the vehicle (e.g., without the compound of Formula (Ia) or a comparator compound).
The compound of Formula (Ia) and the comparator compounds of Formula (II) and Formula (III) were tested in the formalin-induced pain test reported by Dubuisson et al., Pain 1977 December; 4(2):161-74 (incorporated herein by reference in its entirety). Dubuisson et al. (1977) describe a method for assessing pain and analgesia in rats and cats. Briefly, dilute formalin (50 μL of 3% formalin) is injected into the plantar surface of the hind paw. […] The individual responsible for counting the pain behaviors in a particular study is blinded to the treatment groups.
Rats were treated with the HCl salt of Compound (Ia) at various doses (3, 10, 30, and 50 mg/kg, IP) or with the vehicle (IP).

Fold Selectivity Compared to TRPA1 (hTRPV6): ~370 fold
IC50 (hTRPV6; Voltage, Inward (−80 mV)): 34 µM
Fold Selectivity Compared to TRPA1 (hTRPV1): >100 fold
IC50 (hTRPV1; 500 nanomolar Capsaicin, Inward (−80 mV)): > 10 µM
IC50 (hTRPA1; hTRPA1, Human, current activation 10 micromolar AITC, whole cell patch, read-out: IC50 Inward current): 0.093 ± 0.022 µM
IC50 (hTRPA1; hTRPA1, class symbol, read-out: Potency (IC50) Human): 0.05 to 0.1 µM
selectivity for block of TRPA1 over all other tested channels (hTRPA1; versus the eight channels of Table 2): at least 100 fold
Fold Selectivity Compared to TRPA1 (hTRPM8): ~200 fold
IC50 (hTRPM8; 100 micromolar Menthol, Inward (−80 mV)): 19 µM
Fold Selectivity Compared to TRPA1 (hNaV1.2): >100 fold
IC50 (hNaV1.2; Voltage, Peak Inward (0 mV)): > 10 µM
Fold Selectivity Compared to TRPA1 (hTRPV4): ~170 fold
IC50 (hTRPV4; 2 micromolar 4α-PDD, Inward (−80 mV)): 16 µM
Structure (SMILES): C[C@H]1CCCN1c1ncc(-c2cccc(NC(=O)Cn3cnc4c3c(=O)n(C)c(=O)n4C)n2)cn1 [Formula (Ia)]
Duration of Pain Behavior ([1]; 3 mg/kg i.p.): 82.3 s
Duration of Pain Behavior ([1]; 10 mg/kg i.p.): 85.8 s
Duration of Pain Behavior ([1]; 30 mg/kg i.p.): 49.8 s
Duration of Pain Behavior ([1]; 50 mg/kg i.p.): 5.9 s
